Data from PubChem BioAssay AID2060483 (Molecular Pharmacology Branch, DTP, NCI, 2025).

Test system: K24384-001-R-PDC complex spheroids, viability
Assay: Anticancer human tumor K24384-001-R-PDC patient-derived pancreatic adenocarcinoma cell line growth inhibition [GQUAD]
Conditions: for IC50: curve of first compound; for viability, T/C: stronger effect = lower value
Method in brief: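 Viability of tumor cells grown as complex spheroids with endothelial and stromal cells, exposed to drug combinations. Top concentration at or near clinical Cmax (else 10 microM), diluted in half-log increments.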

[1] = second compound 0.0316 µM, first compound 0.0316 µM
[2] = second compound 0.0316 µM, first compound 0.1 µM
[3] = second compound 0.0316 µM, first compound 0.316 µM
[4] = second compound 0.0316 µM, first compound 1 µM
[5] = second compound 0.0316 µM, first compound 3.16 µM
[6] = second compound 0.0316 µM, first compound 10 µM
[7] = second compound 0.1 µM, first compound 0.0316 µM
[8] = second compound 0.1 µM, first compound 0.1 µM
[9] = second compound 0.1 µM, first compound 0.316 µM
[10] = second compound 0.1 µM, first compound 1 µM
[11] = second compound 0.1 µM, first compound 3.16 µM
[12] = second compound 0.1 µM, first compound 10 µM
[13] = second compound 0.316 µM, first compound 0.0316 µM
[14] = second compound 0.316 µM, first compound 0.1 µM
[15] = second compound 0.316 µM, first compound 0.316 µM
[16] = second compound 0.316 µM, first compound 1 µM
[17] = second compound 0.316 µM, first compound 3.16 µM
[18] = second compound 0.316 µM, first compound 10 µM
[19] = second compound 1 µM, first compound 0.0316 µM
[20] = second compound 1 µM, first compound 0.1 µM
[21] = second compound 1 µM, first compound 0.316 µM
[22] = second compound 1 µM, first compound 1 µM
[23] = second compound 1 µM, first compound 3.16 µM
[24] = second compound 1 µM, first compound 10 µM
[25] = second compound 3.16 µM, first compound 0.0316 µM
[26] = second compound 3.16 µM, first compound 0.1 µM
[27] = second compound 3.16 µM, first compound 0.316 µM
[28] = second compound 3.16 µM, first compound 1 µM
[29] = second compound 3.16 µM, first compound 3.16 µM
[30] = second compound 3.16 µM, first compound 10 µM
[31] = second compound 10 µM, first compound 0.0316 µM
[32] = second compound 10 µM, first compound 0.1 µM
[33] = second compound 10 µM, first compound 0.316 µM
[34] = second compound 10 µM, first compound 1 µM
[35] = second compound 10 µM, first compound 3.16 µM
[36] = second compound 10 µM, first compound 10 µM
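Note: spheroids exposed to compounds for seven days.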

In the case of `CC(C)n1c(=O)n(C)c2cnc3cc(F)c(-c4ccc(OCCCN5CCCCC5)nc4)cc3c21` + Cc1[nH]c2ccc(F)cc2c1-c1nc2c3cccnc3c3ncccc3c2[nH]1, the IC50 (second compound 0.0316 µM) is reported as > 10000 nM, the IC50 (second compound 0.1 µM) is reported as > 10000 nM and the IC50 (second compound 0.316 µM) is reported as > 10000 nM. For the same compound, the IC50 (second compound 1 µM) was > 10000 nM, the IC50 (second compound 3.16 µM) was > 10000 nM and the IC50 (second compound 10 µM) was > 10000 nM. The viability, T/C [1] was 108%, the viability, T/C [2] was 96.1% and the viability, T/C [3] was 126%. The viability, T/C [4] was 110%, the viability, T/C [5] was 122% and the viability, T/C [6] was 87.5%. For the same compound, the viability, T/C [7] was 92.1%, the viability, T/C [8] was 129% and the viability, T/C [9] was 110%. For the same compound, the viability, T/C [10] was 116%, the viability, T/C [11] was 157% and the viability, T/C [12] was 91.7%. For the same compound, the viability, T/C [13] was 87.1%, the viability, T/C [14] was 100% and the viability, T/C [15] was 100%. For the same compound, the viability, T/C [16] was 96.6%, the viability, T/C [17] was 125% and the viability, T/C [18] was 146%. For the same compound, the viability, T/C [19] was 104%, the viability, T/C [20] was 107% and the viability, T/C [21] was 101%. It also gave a viability, T/C [22] of 99.1%, a viability, T/C [23] of 134% and a viability, T/C [24] of 107%. The viability, T/C [25] was 78.6%, the viability, T/C [26] was 89.2% and the viability, T/C [27] was 79.9%. The viability, T/C [28] was 99.4%, the viability, T/C [29] was 99.1% and the viability, T/C [30] was 83.3%. It also gave a viability, T/C [31] of 71.9%, a viability, T/C [32] of 73.4% and a viability, T/C [33] of 71.1%. For the same compound, the viability, T/C [34] was 96.3%, the viability, T/C [35] was 79.4% and the viability, T/C [36] was 72.1%.

In the case of `CC1COCCN1c1cc(C2(O)CC3CCC(C2)O3)c2cnn(-c3ccn[nH]3)c2n1` (stereo not drawn) + Cc1[nH]c2ccc(F)cc2c1-c1nc2c3cccnc3c3ncccc3c2[nH]1, the IC50 (second compound 0.0316 µM) is reported as 230 nM, the IC50 (second compound 0.1 µM) is reported as 209 nM and the IC50 (second compound 0.316 µM) is reported as 179 nM. For the same compound, the IC50 (second compound 1 µM) was 182 nM, the IC50 (second compound 3.16 µM) was 139 nM and the IC50 (second compound 10 µM) was 61.1 nM. It also gave a viability, T/C [1] of 75.8%, a viability, T/C [2] of 57.4% and a viability, T/C [3] of 51.6%. The viability, T/C [4] was 27%, the viability, T/C [5] was 24.5% and the viability, T/C [6] was 19.8%. The viability, T/C [7] was 65.6%, the viability, T/C [8] was 82.1% and the viability, T/C [9] was 36.4%. The viability, T/C [10] was 30.2%, the viability, T/C [11] was 33.5% and the viability, T/C [12] was 22.7%. The viability, T/C [13] was 69%, the viability, T/C [14] was 54.9% and the viability, T/C [15] was 44.2%. It also gave a viability, T/C [16] of 32.4%, a viability, T/C [17] of 32.9% and a viability, T/C [18] of 19.1%. For the same compound, the viability, T/C [19] was 77.3%, the viability, T/C [20] was 59.7% and the viability, T/C [21] was 37.2%. The viability, T/C [22] was 35.2%, the viability, T/C [23] was 32.4% and the viability, T/C [24] was 18.1%. For the same compound, the viability, T/C [25] was 53.8%, the viability, T/C [26] was 63.4% and the viability, T/C [27] was 28.4%. For the same compound, the viability, T/C [28] was 30.5%, the viability, T/C [29] was 28.7% and the viability, T/C [30] was 13.2%. For the same compound, the viability, T/C [31] was 55.3%, the viability, T/C [32] was 50.9% and the viability, T/C [33] was 26.2%. It also gave a viability, T/C [34] of 28.4%, a viability, T/C [35] of 22.9% and a viability, T/C [36] of 9.97%.

In the case of `Cn1ncnc1[C@H]1c2n[nH]c(=O)c3cc(F)cc(c23)N[C@@H]1c1ccc(F)cc1` + Cc1[nH]c2ccc(F)cc2c1-c1nc2c3cccnc3c3ncccc3c2[nH]1, the IC50 (second compound 0.0316 µM) is reported as > 316 nM, the IC50 (second compound 0.1 µM) is reported as > 316 nM and the IC50 (second compound 0.316 µM) is reported as > 316 nM. The IC50 (second compound 1 µM) was > 316 nM, the IC50 (second compound 3.16 µM) was > 316 nM and the IC50 (second compound 10 µM) was > 316 nM. For the same compound, the viability, T/C (second compound 0.0316 µM, first compound 0.000999 µM) was 97.8%, the viability, T/C (second compound 0.0316 µM, first compound 0.00316 µM) was 94.4% and the viability, T/C (second compound 0.0316 µM, first compound 0.00999 µM) was 99.6%. The viability, T/C [1] was 92%, the viability, T/C (second compound 0.0316 µM, first compound 0.0999 µM) was 102% and the viability, T/C [3] was 90.4%. The viability, T/C (second compound 0.1 µM, first compound 0.000999 µM) was 87.9%, the viability, T/C (second compound 0.1 µM, first compound 0.00316 µM) was 98.5% and the viability, T/C (second compound 0.1 µM, first compound 0.00999 µM) was 90.3%. For the same compound, the viability, T/C [7] was 91%, the viability, T/C (second compound 0.1 µM, first compound 0.0999 µM) was 97.1% and the viability, T/C [9] was 93.2%. The viability, T/C (second compound 0.316 µM, first compound 0.000999 µM) was 86.7%, the viability, T/C (second compound 0.316 µM, first compound 0.00316 µM) was 103% and the viability, T/C (second compound 0.316 µM, first compound 0.00999 µM) was 93%. The viability, T/C [13] was 89.5%, the viability, T/C (second compound 0.316 µM, first compound 0.0999 µM) was 93% and the viability, T/C [15] was 77.9%. For the same compound, the viability, T/C (second compound 1 µM, first compound 0.000999 µM) was 95.3%, the viability, T/C (second compound 1 µM, first compound 0.00316 µM) was 100% and the viability, T/C (second compound 1 µM, first compound 0.00999 µM) was 95.3%. The viability, T/C [19] was 81.8%, the viability, T/C (second compound 1 µM, first compound 0.0999 µM) was 85.9% and the viability, T/C [21] was 80.8%. The viability, T/C (second compound 3.16 µM, first compound 0.000999 µM) was 74%, the viability, T/C (second compound 3.16 µM, first compound 0.00316 µM) was 92.9% and the viability, T/C (second compound 3.16 µM, first compound 0.00999 µM) was 72.3%. The viability, T/C [25] was 73.5%, the viability, T/C (second compound 3.16 µM, first compound 0.0999 µM) was 72.4% and the viability, T/C [27] was 67.3%. It also gave a viability, T/C (second compound 10 µM, first compound 0.000999 µM) of 64.3%, a viability, T/C (second compound 10 µM, first compound 0.00316 µM) of 79% and a viability, T/C (second compound 10 µM, first compound 0.00999 µM) of 57.2%. For the same compound, the viability, T/C [31] was 76.1%, the viability, T/C (second compound 10 µM, first compound 0.0999 µM) was 71.2% and the viability, T/C [33] was 60.4%.

In the case of `O=C(c1cc(Cc2n[nH]c(=O)c3ccccc23)ccc1F)N1CCN(C(=O)C2CC2)CC1` + Cc1[nH]c2ccc(F)cc2c1-c1nc2c3cccnc3c3ncccc3c2[nH]1, the IC50 (second compound 0.0316 µM) is reported as > 10000 nM, the IC50 (second compound 0.1 µM) is reported as > 10000 nM and the IC50 (second compound 0.316 µM) is reported as > 10000 nM. The IC50 (second compound 1 µM) was > 10000 nM, the IC50 (second compound 3.16 µM) was > 10000 nM and the IC50 (second compound 10 µM) was > 10000 nM. It also gave a viability, T/C [1] of 101%, a viability, T/C [2] of 94% and a viability, T/C [3] of 99.6%. The viability, T/C [4] was 94.3%, the viability, T/C [5] was 84.4% and the viability, T/C [6] was 93.1%. The viability, T/C [7] was 103%, the viability, T/C [8] was 104% and the viability, T/C [9] was 147%. It also gave a viability, T/C [10] of 98.7%, a viability, T/C [11] of 89.8% and a viability, T/C [12] of 83.9%. It also gave a viability, T/C [13] of 96.8%, a viability, T/C [14] of 97.4% and a viability, T/C [15] of 95.7%. It also gave a viability, T/C [16] of 85.7%, a viability, T/C [17] of 82.3% and a viability, T/C [18] of 91.1%. For the same compound, the viability, T/C [19] was 78.1%, the viability, T/C [20] was 88% and the viability, T/C [21] was 90.5%. For the same compound, the viability, T/C [22] was 87.5%, the viability, T/C [23] was 89% and the viability, T/C [24] was 69.7%. It also gave a viability, T/C [25] of 82.9%, a viability, T/C [26] of 78.1% and a viability, T/C [27] of 64.3%. The viability, T/C [28] was 77.9%, the viability, T/C [29] was 82% and the viability, T/C [30] was 67.3%. The viability, T/C [31] was 69.7%, the viability, T/C [32] was 70.7% and the viability, T/C [33] was 62.5%. It also gave a viability, T/C [34] of 69%, a viability, T/C [35] of 74.5% and a viability, T/C [36] of 56.1%.
